Measured values: patent US9849170B2, “Microneedle coating composition and microneedle device” (priority 2013, dated 2017)

Test: Blending effect of lysine hydrochloride on stability (L9 orthogonal table)
Format: physicochemical
Conditions: 2.5% or 5.0% lysine hydrochloride blended; 50° C., 2 weeks; least-squares analysis, FIG. 4
Experimental: A Japanese encephalitis vaccine antigen application solution comprising 70% by mass of a mixture of arginine and an acid, where the blending ratio of each component (unit: % by mass) and the molar ratio of arginine and the acid are shown in Table 7, was applied onto microneedles, and the blending effect of the lysine hydrochloride was evaluated using an L9 orthogonal table. In Table 7, the numerical values in parentheses for each component denote the blending ratios (unit: % by mass) after removal of the volatile component.
A PBS solution of a Japanese encephalitis vaccine antigen was used as a bulk drug, this bulk drug was concentrated by ultrafiltration, and a predetermined amount of an additive was added to the concentrate, followed by mixing to obtain an application solution for microneedles. […] After drying, the microneedles were sealed in MoistCatch (trade name, Kyodo Printing Co., Ltd.) together with PharmaKeep (trade name, Mitsubishi Gas Chemical Company, Inc.), and the stability under each temperature condition was evaluated. […] For the specific activity level of each sample preserved at 50° C. for 2 weeks, the degree of influence by blending of lysine hydrochloride on the specific activity was analyzed by a least-squares method. […]

## Cl.NCCCC[C@H](N)C(=O)O [lysine hydrochloride]
  degree of influence on the specific activity: high
